Data from patent publication US20250276031A1, “PRODRUGS AS SELECTIVE ANTIBIOTICS AGAINST COLIBACTIN-PRODUCING E. COLI” (New York University in Abu Dhabi Corporation, priority 2024, published 2025).

What was measured:
[1] = test system: Escherichia coli ribosome; conditions: comparison value, no own experiment described; read-out: IC50 of chloramphenicol given for comparison; cited from earlier work
[2] = test system: E. coli C41 DE3 pet29b_clbP pSEVA631_mGFP and E. coli C41 DE3 pet29b pSEVA_mScarlet-i; assay: Co-culture competition assay with PXCNA (mGFP / mScarlet-i fluorescence, OD600); type: cell-based
Method: PXCNA activity was measured via fluorescence (see FIGS. 18 and 19).
A co-culture assay was performed. Overnight cultures of E. coli C41 DE3 pet29b_cIbP pSEVA631_mGFP and E. coli C41 DE3 pet29b pSEVA_mScarlet-i were prepared separately each from a single colony. Then 1:100 dilution of each culture into the same LB media well supplemented with kanamycin (50 μg/ml) and gentamycin (15 μg/ml) was performed. […] Samples were fed with PXCNA with a final concentration of 25 mg/L.

[3] = test system: E. coli expressing the ClbP protease; assay: Growth curves with PXCNA; type: cell-based; conditions: crude extract, 10, 25, 50 mg/L; IPTG induced; 22° C., 24 hrs, OD600
Method: Growth curves made using PXCNA. Briefly, a single colony from E. coli strain C41(DE3)_ΔacrABpET-29b clbP strain was inoculated into LB medium supplemented with kanamycin (50 μg/ml). This culture was grown overnight at 37° C. while shaking at 200 RPM. 1:100 dilution of overnight culture into fresh LB medium supplemented with kanamycin (50 μg/ml) was performed. Samples were induced with IPTG (0.5 mM). A crude extract of PXCNA prepared in methanol (1 mg/ml). The final concentration in samples was 50 mg/L, 25 mg/L and 10 mg/L. Samples were incubated at 22° C. for 24 hrs and OD600 was measured using TecanSpark.

SMILES | IC50 [1] | mGFP and mScarlet-i fluorescence in co-culture ([2]; PXCNA 25 mg/L, vanillic acid, with or without IPTG) | OD600 growth of E. coli C41 DE3 pet29b_clbP pSEVA631_mGFP ([2]; only vanillic acid and PXCNA added, no IPTG) | selective killing of ClbP expressing E. coli [3]
O=C(N[C@H](CO)[C@H](O)c1ccc([N+](=O)[O-])cc1)C(Cl)Cl [chloramphenicol] | 2800 nM |  |  | 
CC(C)CCCC(=O)N[C@H](CC(N)=O)C(=O)N[C@@H](CCCN=C(N)N)[C@H](O)[C@H](O)C(=O)N[C@@H](CC(C)C)[C@@H]1Cc2cccc(O)c2C(=O)O1 [PXCNA, prexenocoumacin] |  | low level of fluorescence observed for both | growth did not appear inhibited | kills selectively E. coli expressing the ClbP protease
